Test results from patent US20260199323A1, “LIGAND COMPOUNDS FOR E3 UBIQUITIN LIGASE, PROTEIN DEGRADERS DEVELOPED ON BASIS OF LIGAND COMPOUNDS, AND USES THEREOF” (GLUETACS THERAPEUTICS (SHANGHAI) CO., LTD., priority 2021, published 2026).
Where two headings read alike, the source gives them in different places.

Key:
Type in all cases: cell-based, Human
[1] = system: CCRF-CEM; assay: CCK-8 tumor cell proliferation, CCRF-CEM; settings: Homo sapiens, CCRF-CEM, read-out: IC50 inhibiting proliferation of tumor cells, CCRF-CEM
Procedure, shortened: (§1)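 Ten-point titrations (10 μM highest, 5-fold steps) were applied to cells 24 h after seeding. After treatment at 37 °C, 5% CO2, cell viability was read with CCK-8 and IC50 values were computed from the resulting inhibition curves.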

[2] = system: SW620; assay: CCK-8 tumor cell proliferation, SW620; settings: Homo sapiens, SW-620, SW620, read-out: IC50 inhibiting proliferation of tumor cells, SW620
Procedure, shortened: as §1

[3] = system: SR; assay: CCK-8 tumor cell proliferation, SR; settings: Homo sapiens; Table 18, FAK inhibitor based; SR; read-out: IC50 inhibiting proliferation of tumor cells, SR
Procedure, shortened: as §1

[4] = system: HGC-27; assay: CCK-8 tumor cell proliferation, HGC-27; settings: Homo sapiens; Table 18, FAK inhibitor based; HGC-27; read-out: IC50 inhibiting proliferation of tumor cells, HGC-27
Procedure: (§2) The tumor cells used herein were cultured in a cell culture medium listed in table 4 at 37° C. in an incubator with 5% CO2. Prior to experimentation, all cells used were correctly identified by STR profiling, and tested negative for mycoplasma through routine screenings.
(§3) IC50 values of the compounds of the present disclosure (including the compounds in Tables 1 and 3, and compounds of examples) were measured using the Meilun Cell Counting Kit-8 kit from Dalian Meilun Biotech Co., Ltd. Assay details are as follows: tumor cells were seeded in a 96-well plate at a density listed in Table 5. After 24 h, 100 μL of the inoculated cells were treated with 0.5 μL of the compounds of the present disclosure (including the compounds in Tables 1 and 3, and compounds of examples) at 10 different successively decreasing concentrations (starting at the highest concentration of 10 μM; 5-fold serial dilutions). After the cells were treated with the compounds of the present disclosure for a period of time, the cell viability detection reagent was added to the culture medium for cell viability assessment according to the instructions provided with the CCK-8 kit. […] The growth inhibition of the compounds of the present disclosure on cells was plotted by Prism Graphpad software, and the IC50 values of the compounds of the present disclosure were calculated therefrom.

[5] = system: Mino; assay: CCK-8 tumor cell proliferation, Mino; settings: Homo sapiens; Table 18, FAK inhibitor based; Mino; read-out: IC50 inhibiting proliferation of tumor cells, Mino
Procedure, shortened: as §1

[6] = system: MDA-MB-231; assay: CCK-8 tumor cell proliferation, MDA-MB-231; settings: Homo sapiens; Table 18, FAK inhibitor based; MDA-MB-231; read-out: IC50 inhibiting proliferation of tumor cells, MDA-MB-231
Procedure, shortened: as §1

[7] = system: PC-9; assay: CCK-8 tumor cell proliferation, PC-9; settings: Homo sapiens; Table 18, FAK inhibitor based; PC-9; read-out: IC50 inhibiting proliferation of tumor cells, PC-9
[8] = system: LNcap; assay: CCK-8 tumor cell proliferation, LNcap; settings: Homo sapiens; Table 19, IRAK4 inhibitor based; Lncap; read-out: IC50 inhibiting proliferation of tumor cells, Lncap
Procedure, shortened: as §1

[9] = system: Jurkat; assay: CCK-8 tumor cell proliferation, Jurkat; settings: Homo sapiens, Table 19, IRAK4 inhibitor based, read-out: IC50 inhibiting proliferation of tumor cells, Jurkat
Procedure, shortened: as §1

[10] = system: CAL-62; assay: CCK-8 tumor cell proliferation, CAL-62; settings: Homo sapiens; Table 19, IRAK4 inhibitor based; CAL-62; read-out: IC50 inhibiting proliferation of tumor cells, CAL-62
Procedure, shortened: as §1

[11] = system: SU-DHL-4; assay: CCK-8 tumor cell proliferation, SU-DHL-4; settings: Homo sapiens, Table 19, IRAK4 inhibitor based, read-out: IC50 inhibiting proliferation of tumor cells, SU-DHL-4
Procedure: as §2, §3

[12] = Table 19, IRAK4 inhibitor based

Row | SMILES | IC50 ([1]; Table 18, FAK inhibitor based) | IC50 ([2]; Table 18, FAK inhibitor based) | IC50 [3] | IC50 [4] | IC50 [5] | IC50 [6] | IC50 [7] | IC50 [1, 12] | IC50 [8] | IC50 [9] | IC50 [2, 12] | IC50 [10] | IC50 [11]
1 | CNC(=O)c1ccccc1Nc1cc(Nc2ccc(N3CCN(Cc4ccc5c(c4)CN(C4CCC(=O)NC4=O)C5=O)CC3)cc2OC)ncc1C(F)(F)F (centres unmarked) [GT-03014, 2-((2-((4-(4-((2-(2,6-dioxopiperidin-3-yl)-1-oxoisoindolin-5-yl)methyl)piperazin-1-yl)-2-methoxyphenyl)amino)-5-(trifluoromethyl)pyridin-4-yl)amino)-N-methylbenzamide] | < 0.05 µM | < 0.05 µM | 0.1 to 0.5 µM | 1 to 5 µM | < 0.05 µM | 0.05 to 0.1 µM | 1 to 5 µM |  |  |  |  |  | 
2 | CNC(=O)c1ccccc1Nc1cc(Nc2ccc(N3CCC(NCc4ccc5c(c4)CN(C4CCC(=O)NC4=O)C5=O)CC3)cc2OC)ncc1C(F)(F)F (centres unmarked) [GT-03213, 2-((2-((4-(4-(((2-(2,6-dioxopiperidin-3-yl)-1-oxoisoindolin-5-yl)methyl)amino)piperidin-1-yl)-2-methoxyphenyl)amino)-5-(trifluoromethyl)pyridin-4-yl)amino)-N-methylbenzamide] | 0.1 to 0.5 µM | 0.5 to 1 µM | < 0.05 µM | 0.5 to 1 µM |  | < 0.05 µM | 0.5 to 1 µM |  |  |  |  |  | 
3 | CNC(=O)c1ccccc1Nc1cc(Nc2ccc(N3CCC(N4CCN(Cc5ccc6c(c5)CN(C5CCC(=O)NC5=O)C6=O)CC4)CC3)cc2OC)ncc1C(F)(F)F (centres unmarked) [GT-03266, 2-((2-((4-(4-(4-((2-(2,6-dioxopiperidin-3-yl)-1-oxoisoindolin-5-yl)methyl)piperazin-1-yl)piperidin-1-yl)-2-methoxyphenyl)amino)-5-(trifluoromethyl)pyridin-4-yl)amino)-N-methylbenzamide] | 0.1 to 0.5 µM | 0.1 to 0.5 µM | 0.05 to 0.1 µM | 0.5 to 1 µM | 1 to 5 µM | 0.1 to 0.5 µM | 0.1 to 0.5 µM |  |  |  |  |  | 
4 | CNC(=O)c1ccccc1Nc1cc(Nc2ccc(N3CCC(N4CCN(Cc5ccc6c(c5F)CN(C5CCC(=O)NC5=O)C6=O)CC4)CC3)cc2OC)ncc1C(F)(F)F (centres unmarked) [GT-03595, 2-((2-((4-(4-(4-((2-(2,6-dioxopiperidin-3-yl)-4-fluoro-1-oxoisoindolin-5-yl)methyl)piperazin-1-yl)piperidin-1-yl)-2-methoxyphenyl)amino)-5-(trifluoromethyl)pyridin-4-yl)amino)-N-methylbenzamide] | 0.1 to 0.5 µM |  | < 0.05 µM | 0.1 to 0.5 µM |  | 0.1 to 0.5 µM | 0.5 to 1 µM |  |  |  |  |  | 
5 | CNC(=O)c1ccccc1Nc1cc(Nc2ccc(N3CCC(N4CCN(Cc5cc6c(cc5F)C(=O)N(C5CCC(=O)NC5=O)C6)CC4)CC3)cc2OC)ncc1C(F)(F)F (centres unmarked) [GT-03596, 2-((2-((4-(4-(4-((2-(2,6-dioxopiperidin-3-yl)-6-fluoro-1-oxoisoindolin-5-yl)methyl)piperazin-1-yl)piperidin-1-yl)-2-methoxyphenyl)amino)-5-(trifluoromethyl)pyridin-4-yl)amino)-N-methylbenzamide] | 0.1 to 0.5 µM |  | 0.05 to 0.1 µM | 0.5 to 1 µM |  | 0.5 to 1 µM | 1 to 5 µM |  |  |  |  |  | 
6 | CNC(=O)c1ccccc1Nc1cc(Nc2ccc(N3CCC(N4CCN(Cc5cc(F)c6c(c5)CN(C5CCC(=O)NC5=O)C6=O)CC4)CC3)cc2OC)ncc1C(F)(F)F (centres unmarked) [GT-03597, 2-((2-((4-(4-(4-((2-(2,6-dioxopiperidin-3-yl)-7-fluoro-1-oxoisoindolin-5-yl)methyl)piperazin-1-yl)piperidin-1-yl)-2-methoxyphenyl)amino)-5-(trifluoromethyl)pyridin-4-yl)amino)-N-methylbenzamide] | 0.1 to 0.5 µM |  | 0.05 to 0.1 µM | 0.5 to 1 µM |  | 0.5 to 1 µM | 0.5 to 1 µM |  |  |  |  |  | 
7 | O=C1CCC(N2Cc3cc(CN4CCC(n5cc(NC(=O)c6coc(-c7ccnc(NCC(F)(F)F)c7)n6)c(C(F)F)n5)CC4)cc(F)c3C2=O)C(=O)N1 (centres unmarked) [GT-04099, N-(3-(difluoromethyl)-1-(1-((2-(2,6-dioxopiperidin-3-yl)-7-fluoro-1-oxoisoindolin-5-yl)methyl)piperidin-4-yl)-1H-pyrazol-4-yl)-2-(2-((2,2,2-trifluoroethyl)amino)pyridin-4-yl)oxazole-4-carboxamide] |  |  |  |  |  |  |  | < 0.05 µM | < 0.05 µM | < 0.05 µM | < 0.05 µM | < 0.05 µM | 0.1 to 0.5 µM
8 | O=C1CCC(N2Cc3cc(CN4CCC(n5cc(NC(=O)c6coc(-c7ccnc(NCC(F)(F)F)c7)n6)c(C(F)F)n5)CC4)ccc3C2=O)C(=O)N1 (centres unmarked) [GT-04120, N-(3-(difluoromethyl)-1-(1-((2-(2,6-dioxopiperidin-3-yl)-1-oxoisoindolin-5-yl)methyl)piperidin-4-yl)-1H-pyrazol-4-yl)-2-(2-((2,2,2-trifluoroethyl)amino)pyridin-4-yl)oxazole-4-carboxamide] |  |  |  |  |  |  |  | < 0.05 µM | < 0.05 µM | < 0.05 µM | < 0.05 µM | < 0.05 µM | < 0.05 µM
9 | O=C1CCC(N2Cc3cc(CN4CCC(n5cc(NC(=O)c6coc(-c7ccnc(NCC8CC8)c7)n6)c(C(F)F)n5)CC4)ccc3C2=O)C(=O)N1 (centres unmarked) [GT-04153, 2-(2-((cyclopropylmethyl)amino)pyridin-4-yl)-N-(3-(difluoromethyl)-1-(1-((2-(2,6-dioxopiperidin-3-yl)-1-oxoisoindolin-5-yl)methyl)piperidin-4-yl)-1H-pyrazol-4-yl)oxazole-4-carboxamide] |  |  |  |  |  |  |  | < 0.05 µM | < 0.05 µM | < 0.05 µM | < 0.05 µM | < 0.05 µM | < 0.05 µM
10 | O=C1CCC(N2Cc3c(ccc(CN4CCC(n5cc(NC(=O)c6coc(-c7ccnc(NCC8CC8)c7)n6)c(C(F)F)n5)CC4)c3F)C2=O)C(=O)N1 (centres unmarked) [GT-04154, 2-(2-((cyclopropylmethyl)amino)pyridin-4-yl)-N-(3-(difluoromethyl)-1-(1-((2-(2,6-dioxopiperidin-3-yl)-4-fluoro-1-oxoisoindolin-5-yl)methyl)piperidin-4-yl)-1H-pyrazol-4-yl)oxazole-4-carboxamide] |  |  |  |  |  |  |  | < 0.05 µM | < 0.05 µM | < 0.05 µM | < 0.05 µM | < 0.05 µM | < 0.05 µM
11 | O=C1CCC(N2Cc3cc(CN4CCC(n5cc(NC(=O)c6coc(-c7ccnc(NCC8CC8)c7)n6)c(C(F)F)n5)CC4)c(F)cc3C2=O)C(=O)N1 (centres unmarked) [GT-04171, 2-(2-((cyclopropylmethyl)amino)pyridin-4-yl)-N-(3-(difluoromethyl)-1-(1-((2-(2,6-dioxopiperidin-3-yl)-6-fluoro-1-oxoisoindolin-5-yl)methyl)piperidin-4-yl)-1H-pyrazol-4-yl)oxazole-4-carboxamide] |  |  |  |  |  |  |  | < 0.05 µM | < 0.05 µM | < 0.05 µM | < 0.05 µM | < 0.05 µM | < 0.05 µM
12 | O=C1CCC(N2Cc3cc(CN4CCC(n5cc(NC(=O)c6coc(-c7ccnc(NCC8CC8)c7)n6)c(C(F)F)n5)CC4)cc(F)c3C2=O)C(=O)N1 (centres unmarked) [GT-04172, 2-(2-((cyclopropylmethyl)amino)pyridin-4-yl)-N-(3-(difluoromethyl)-1-(1-((2-(2,6-dioxopiperidin-3-yl)-7-fluoro-1-oxoisoindolin-5-yl)methyl)piperidin-4-yl)-1H-pyrazol-4-yl)oxazole-4-carboxamide] |  |  |  |  |  |  |  | < 0.05 µM | < 0.05 µM | < 0.05 µM | < 0.05 µM | < 0.05 µM | 0.1 to 0.5 µM
